Source: patent US8937065B2, “Compositions and methods for modulating a kinase” (Clevexel Pharma, priority 2011, dated 2015)

Test system: collagen induced arthritis (CIA) in DBA/1 mice
Test: Mouse collagen induced arthritis (CIA) slow-progressing disease model
Format: in vivo
Settings: 100 mg/kg IP QD, 20 days, mild CIA model, n=10, P<0.05
Description: Compounds of the invention were evaluated in mouse collagen induced arthritis (CIA) models. There are several known CIA models as outlined in the table below:
The CIA studies utilized a mild (slow-progressing) disease model. The DBA/1 mice developed collagen induced arthritis (CIA) after immunization with Hooke Kit™ chicken collagen/Complete Freund's Adjuvant (CFA) emulsion (EK-0210), followed by a booster dose of Hooke Kit™ chicken collagen/Incomplete Freund's Adjuvant (IFA) emulsion (EK-0211). Each study used 54 female DBA/1 mice (Taconic Farms model DBA1BO, 9 weeks old) later assigned to […] with 10 mice per group. 4 mice were not immunized nor treated, and they were left as naïve controls group for possible histological analysis. The other 50 mice were treated therapeutically.
One study comprises group 1—Vehicle, group 2—CP-690550, 30 mg/kg PO QD, group 3—R-788, 60 mg/kg PO QD and group 4—compound 7, 100 mg/kg, IP QD. The other study comprises group 1—Vehicle, group 2—compound 7, 15 mg/kg PO QD, group 3—compound 7, 30 mg/kg PO QD and group 4—compound 7, 100 mg/kg, IP QD.
Mice were first immunized with collagen/CFA emulsion on Day 0 after being acclimated for at least 7 days. The procedure of immunization was as follows: A mouse was immobilized using a restrainer. The tail was cleaned with 70% ethanol and the area was wiped dry with sterile gauze. […]

## O=C(CN1CCOCC1)Nc1cccc(-c2nc(-c3c[nH]c(C(=O)N4CCCC4)c3)cs2)c1 [7A, 2-morpholino-N-(3-(4-(5-(pyrrolidine-1-carbonyl)-1H-pyrrol-3-yl)thiazol-2-yl)phenyl)acetamide]
  CIA score on the last day vs. combined vehicle: reduction in CIA score
